Measured values reported in patent publication US20140088052A1, “CHALCONE DERIVATIVES AS NRF2 ACTIVATORS” (THE JOHNS HOPKINS UNIVERSITY, priority 2011, published 2014).
Read-outs that look alike come from different tables or passages of the source.

System: Nrf2
Assay: Expression of Nrf2-regulated genes GCLM and NQO1 by qRT-PCR in Beas-2B cells (screen)
Type: cell-based, human
Settings: 16 h, DMSO = 1.0 (Table 2); for fold induction at 10 µM: Homo sapiens
Experimental: To investigate the potency of the presently disclosed chalcone derivatives to activate Nrf2, the expression of antioxidant genes, GCLM and NADPH-NQO1, two well characterized transcriptional targets of Nrf2, were measured as surrogate markers. By “marker” is meant any protein or polynucleotide having an alteration in expression level or activity that is associated with a disease, disorder, or condition. It has been previously shown that oxidants or small molecule activators of Nrf2 increase GCLM and NQO1 in cells or tissues of wild-type, but not in Nrf2-deficient mice. Osburn, W. O., et al., Genetic or pharmacologic amplification of Nrf2 signaling inhibits acute inflammatory liver injury in mice. Toxicol. Sci. 2008, 104(1), 218-227. […]
RNA was isolated and gene expression was measured after 16 h.
Total RNA was extracted from cells/tissue using Qiagen RNeasy kit (Qiagen Corporation, Valencia, Calif.) and reverse transcription was performed by using random hexamers and MultiScribe reverse transcriptase according to the manufacturer's recommendations (Applied Biosystems, Foster City, Calif., USA). Quantitative real-time RT-PCR analyses of Nrf2, NQO1, HO1, and GCLM were performed by using Assay-on-Demand primers and probe sets from Applied Biosystems. Assays were performed using the ABI 7000 Taqman system (Applied Biosystems, Foster City, Calif.). β-actin was used for normalization.

[1] = BEAS-2B, read-out: Relative Fold Change GCLM
[2] = BEAS-2B, read-out: Relative Fold Change NQO1
[3] = read-out: Relative Fold Change GCLM
[4] = read-out: Relative Fold Change NQO1

**Q.** Which results are given for `COc1ccccc1C(=O)/C=C/c1ccccc1` [Compound 1b, (E)-1-(2-methoxyphenyl)-3-phenylprop-2-en-1-one]?
**A.** fold induction at 10 µM [1]: 3.6; fold induction at 10 µM [2]: 3.2

**Q.** `COc1cccc(C(=O)/C=C/c2ccccc2)c1` [Compound 1c, (E)-1-(3-methoxyphenyl)-3-phenylprop-2-en-1-one] was tested. Which fold induction at 10 µM [1] did it give?
**A.** 1.5

**Q.** And the fold induction at 10 µM [2]?
**A.** 2.4

**Q.** For `COc1ccc(C(=O)/C=C/c2ccccc2)cc1` [Compound 1d, (E)-1-(4-methoxyphenyl)-3-phenylprop-2-en-1-one], which fold induction at 10 µM [1] is on record?
**A.** 1.9

**Q.** And the fold induction at 10 µM [2]?
**A.** 2.8

**Q.** Which fold induction at 10 µM [3] does the source give for `COc1ccc(C(=O)/C=C/c2ccccc2)c(OC)c1` [Compound 1e, (E)-3-phenyl-1-(2,4-dimethoxyphenyl)prop-2-en-1-one] here?
**A.** 2.7

**Q.** What about the fold induction at 10 µM [4] of the same compound?
**A.** 2.8

**Q.** `COc1cccc(OC)c1C(=O)/C=C/c1ccccc1` [Compound 1f, (E)-3-phenyl-1-(2,6-dimethoxyphenyl)prop-2-en-1-one] was tested. Which fold induction at 10 µM [1] did it give?
**A.** 2.5

**Q.** What about the fold induction at 10 µM [2] of the same compound?
**A.** 1.9

**Q.** For `COc1ccc(OC)c(C(=O)/C=C/c2ccccc2)c1` [Compound 1g, (E)-3-phenyl-1-(2,5-dimethoxyphenyl)prop-2-en-1-one], which fold induction at 10 µM [1] is on record?
**A.** 3

**Q.** And the fold induction at 10 µM [2]?
**A.** 2.6

**Q.** Which fold induction at 10 µM [3] does the source give for `COc1ccc(C(=O)/C=C/c2ccccc2)cc1OC` [Compound 1h, (E)-3-phenyl-1-(3,4-dimethoxyphenyl)prop-2-en-1-one] here?
**A.** 2.3

**Q.** What about the fold induction at 10 µM [4] of the same compound?
**A.** 2.5

**Q.** Which fold induction at 10 µM [1] does the source give for `COc1cc(OC)cc(C(=O)/C=C/c2ccccc2)c1` [Compound 1i, (E)-3-phenyl-1-(3,5-dimethoxyphenyl)prop-2-en-1-one] here?
**A.** 3

**Q.** And the fold induction at 10 µM [2]?
**A.** 2.4

**Q.** How did the fold induction at 10 µM [1] turn out when `COc1cc(C(=O)/C=C/c2ccccc2)cc(OC)c1OC` [Compound 1j, (E)-3-phenyl-1-(3,4,5-trimethoxyphenyl)prop-2-en-1-one] was run?
**A.** 0.7

**Q.** What about the fold induction at 10 µM [2] of the same compound?
**A.** 0.7

**Q.** With `COc1ccc(C(=O)/C=C/c2ccccc2)c(OC)c1OC` [Compound 1k, (E)-3-phenyl-1-(2,3,4.trimethoxyphenyl)prop-2-en-1-one] as the compound, how does the “Relative Fold Change GCLM” value (10 μM) read?
**A.** 2.4

**Q.** What about the “Relative Fold Change NQO1” value (10 μM) of the same compound?
**A.** 2.4

**Q.** `COc1cc(OC)c(C(=O)/C=C/c2ccccc2)c(OC)c1` [Compound 1l, (E)-3-phenyl-1-(2,4,6-trimethoxyphenyl)prop-2-en-1-one] was tested. Which fold induction at 10 µM [1] did it give?
**A.** 3.1

**Q.** What about the fold induction at 10 µM [2] of the same compound?
**A.** 1.8

**Q.** `COc1ccc(OC)c(C(=O)/C=C/c2ccccc2C(F)(F)F)c1` [Compound 2g, (E)-1-(2,5-dimethoxyphenyl)-3-(2-(trifluoromethyl)phenyl)prop-2-en-1-one] was tested. Which fold induction at 10 µM [1] did it give?
**A.** 4.4

**Q.** What about the fold induction at 10 µM [2] of the same compound?
**A.** 2.7

**Q.** What does the source list for `COc1ccc(C(=O)/C=C/c2ccccc2C(F)(F)F)cc1OC` [Compound 2h, (E)-1-(3,4-dimethoxyphenyl)-3-(2-(trifluoromethyl)phenyl)prop-2-en-1-one]?
**A.** fold induction at 10 µM [1]: 4.3; fold induction at 10 µM [2]: 2.7

**Q.** Which fold induction at 10 µM [1] does the source give for `COc1cc(C(=O)/C=C/c2ccccc2C(F)(F)F)cc(OC)c1OC` [Compound 2j, (E)-1-(3,4,5,S.trimethoxyphenyl)-3-(2-(trifluoromethyl)phenyl)prop-2-en-1-one] here?
**A.** 3

**Q.** And the fold induction at 10 µM [2]?
**A.** 3.1

**Q.** Which results are given for `O=C(/C=C/c1cccc(C(F)(F)F)c1)c1ccccc1` [Compound 3a, (E)-1-phenyl-3-(3-(trifluoromethyl)phenyl)prop-2-en-1-one]?
**A.** fold induction at 10 µM [1]: 3.1; fold induction at 10 µM [2]: 2.8

**Q.** Which fold induction at 10 µM [1] does the source give for `COc1ccccc1C(=O)/C=C/c1cccc(C(F)(F)F)c1` [Compound 3b, (E)-1-(2-methoxyphenyl)-3-(3-(trifluoromethyl)phenyl)prop-2-en-1-one] here?
**A.** 3.9

**Q.** What about the fold induction at 10 µM [2] of the same compound?
**A.** 2.9

**Q.** With `COc1ccc(C(=O)/C=C/c2cccc(C(F)(F)F)c2)cc1` [Compound 3d, (E)-1-(4-methoxyphenyl)-3-(3-(trifluoromethyl)phenyl)prop-2-en-1-one] as the compound, how does the fold induction at 10 µM [1] read?
**A.** 2.7

**Q.** And the fold induction at 10 µM [2]?
**A.** 2.8

**Q.** What does the source list for `COc1ccc(C(=O)/C=C/c2cccc(C(F)(F)F)c2)c(OC)c1` [Compound 3e, (E)-1-(2,4-dimethoxyphenyl)-3-(3-(trifluoromethyl)phenyl)prop-2-en-1-one]?
**A.** fold induction at 10 µM [1]: 4.6; fold induction at 10 µM [2]: 4

**Q.** With `COc1cccc(OC)c1C(=O)/C=C/c1cccc(C(F)(F)F)c1` [Compound 3f, (E)-1-(2,6-dimethoxyphenyl)-3-(3-(trifluoromethyl)phenyl)prop-2-en-1-one] as the compound, how does the fold induction at 10 µM [1] read?
**A.** 1.8

**Q.** And the fold induction at 10 µM [2]?
**A.** 0.6

**Q.** Which fold induction at 10 µM [1] does the source give for `COc1ccc(OC)c(C(=O)/C=C/c2cccc(C(F)(F)F)c2)c1` [Compound 3g, (E)-1-(2,5-dimethoxyphenyl)-3-(3-(trifluoromethyl)phenyl)prop-2-en-1-one] here?
**A.** 1.8

**Q.** What about the fold induction at 10 µM [2] of the same compound?
**A.** 0.8

**Q.** Which fold induction at 10 µM [1] does the source give for `COc1ccc(C(=O)/C=C/c2cccc(C(F)(F)F)c2)cc1OC` [Compound 3h, (E)-1-(3,4-dimethoxyphenyl)-3-(3-(trifluoromethyl)phenyl)prop-2-en-1-one] here?
**A.** 4.1

**Q.** What about the fold induction at 10 µM [2] of the same compound?
**A.** 2.9

**Q.** With `COc1cc(C(=O)/C=C/c2cccc(C(F)(F)F)c2)cc(OC)c1OC` [Compound 3j, (E)-1-(3,4,5-trimethoxyphenyl)-3-(3-(trifluoromethyl)phenyl)prop-2-en-1-one] as the compound, how does the fold induction at 10 µM [1] read?
**A.** 1.7

**Q.** And the fold induction at 10 µM [2]?
**A.** 0.8

**Q.** With `COc1ccc(C(=O)/C=C/c2cccc(C(F)(F)F)c2)c(OC)c1OC` [Compound 3k, (E)-1-(2,3,4-trimethoxyphenyl)-3-(3-(trifluoromethyl)phenyl)prop-2-en-1-one] as the compound, how does the fold induction at 10 µM [1] read?
**A.** 3.6

**Q.** What about the fold induction at 10 µM [2] of the same compound?
**A.** 3.2

**Q.** With `COc1cc(OC)c(C(=O)/C=C/c2cccc(C(F)(F)F)c2)c(OC)c1` [Compound 3l, (E)-1-(2,4,6-trimethoxyphenyl)-3-(3-(trifluoromethyl)phenyl)prop-2-en-1-one] as the compound, how does the fold induction at 10 µM [1] read?
**A.** 1.4

**Q.** What about the fold induction at 10 µM [2] of the same compound?
**A.** 0.7

**Q.** For `O=C(/C=C/c1ccc(C(F)(F)F)cc1)c1ccccc1` [Compound 4a, (E)-1-phenyl-3-(4-(trifluoromethyl)phenyl)prop-2-en-1-one], which fold induction at 10 µM [1] is on record?
**A.** 3.31

**Q.** What about the fold induction at 10 µM [2] of the same compound?
**A.** 2.9

**Q.** How did the fold induction at 10 µM [1] turn out when `COc1cccc(C(=O)/C=C/c2ccc(C(F)(F)F)cc2)c1` [Compound 4c, (E)-1-(3-methoxyphenyl)-4-(4-(trifluoromethyl)phenyl)prop-2-en-1-one] was run?
**A.** 2.9

**Q.** And the fold induction at 10 µM [2]?
**A.** 3.1

**Q.** What does the source list for `COc1cccc(OC)c1C(=O)/C=C/c1ccc(C(F)(F)F)cc1` [Compound 4f, (E)-1-(2,6-dimethoxyphenyl)-3-(4-(trifluoromethyl)phenyl)prop-2-en-1-one]?
**A.** fold induction at 10 µM [1]: 1.4; fold induction at 10 µM [2]: 0.6

**Q.** Which results are given for `COc1ccc(C(=O)/C=C/c2ccc(C(F)(F)F)cc2)cc1OC` [Compound 4h]?
**A.** fold induction at 10 µM [1]: 3.5; fold induction at 10 µM [2]: 2.7

**Q.** How did the fold induction at 10 µM [1] turn out when `COc1cc(C(=O)/C=C/c2ccc(C(F)(F)F)cc2)cc(OC)c1OC` [Compound 4i] was run?
**A.** 4.1

**Q.** And the fold induction at 10 µM [2]?
**A.** 3.7

**Q.** What does the source list for `COc1cc(OC)c(C(=O)/C=C/c2ccc(C(F)(F)F)cc2)c(OC)c1` [Compound 4k]?
**A.** fold induction at 10 µM [1]: 2.4; fold induction at 10 µM [2]: 2.4

**Q.** With `COc1ccc(OC)c(C(=O)/C=C/c2ccccc2[N+](=O)[O-])c1` [Compound 5g] as the compound, how does the fold induction at 10 µM [1] read?
**A.** 1.7

**Q.** What about the fold induction at 10 µM [2] of the same compound?
**A.** 0.7

**Q.** How did the fold induction at 10 µM [1] turn out when `COc1ccc(C(=O)/C=C/c2ccccc2[N+](=O)[O-])c(OC)c1OC` [Compound 5k, (E)-1-(2,3,4-trimethoxyphenyl)-3-(2-nitrophenyl)prop-2-en-1-one] was run?
**A.** 2.9

**Q.** And the fold induction at 10 µM [2]?
**A.** 3.3
